From patent publication US20250129067A1 (Progentos Therapeutics, Inc., priority 2021, published 2025) come the findings set out here.

pIC50: −log10 of the molar value. Where two headings read alike, the source gives them in different places.

One series addresses PDGFRα (Homo sapiens (Human), UniProt P16234). Put plainly: PDGFRα kinase enzyme assay (Promega PDGFRα Kinase Enzyme System, ADP-Glo). The format is biochemical. The note with it: 150 uM ATP. In short, it runs like this: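 Read-out was ADP-Glo: remaining ATP depleted, ADP converted to luminescence and compared with a standard curve.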
The test system of series [1] is Oligodendrocyte progenitor cells (OPCs). Put plainly: In vitro OPC differentiation assay, GPR17 expression (immunocytochemistry). As to conditions: 72 hours; for GPR17 Fold Induction (Over Vehicle; 3 μM): 3 μM (10× concentration, final 0.3 μM), fold change over vehicle; for GPR17 Fold Induction (Over Vehicle; 5 μM): primary rat OPCs, 5 μM (10x; final 0.5 μM per method), percent GPR17+ cells as fold change over vehicle.

Series [2] relates to GPR17+ cells (newly differentiated oligodendrocytes). Put plainly: In vivo OPC differentiation, GPR17+ cells in brain. The note with it: for In vivo GPR17+ cells, GPR17 Fold Induction (Over Vehicle): adult female C57BL/6 mice, PO or IP, treatment period 1-3 days, entire brain, fold change over vehicle treated animals.
[3] abbreviates: 11-point dose response, 10,000 nM to 0.169 nM, BLQ = below limit of quantitation, read-out: IC50 Values on PDGFRα Kinase Inhibition, IC50.
Where [4] appears, read: Mus musculus, po, 24 h, read-out: GPR17 Fold Induction (Over Vehicle).
Where [5] appears, read: 20 ng purified PDGFRα, Poly (Glu4Tyr1) substrate, two hours, 11-point dose response, read-out: IC50 Values on PDGFRα Kinase Inhibition.

Chain of PDGFRα (P16234 24-1089): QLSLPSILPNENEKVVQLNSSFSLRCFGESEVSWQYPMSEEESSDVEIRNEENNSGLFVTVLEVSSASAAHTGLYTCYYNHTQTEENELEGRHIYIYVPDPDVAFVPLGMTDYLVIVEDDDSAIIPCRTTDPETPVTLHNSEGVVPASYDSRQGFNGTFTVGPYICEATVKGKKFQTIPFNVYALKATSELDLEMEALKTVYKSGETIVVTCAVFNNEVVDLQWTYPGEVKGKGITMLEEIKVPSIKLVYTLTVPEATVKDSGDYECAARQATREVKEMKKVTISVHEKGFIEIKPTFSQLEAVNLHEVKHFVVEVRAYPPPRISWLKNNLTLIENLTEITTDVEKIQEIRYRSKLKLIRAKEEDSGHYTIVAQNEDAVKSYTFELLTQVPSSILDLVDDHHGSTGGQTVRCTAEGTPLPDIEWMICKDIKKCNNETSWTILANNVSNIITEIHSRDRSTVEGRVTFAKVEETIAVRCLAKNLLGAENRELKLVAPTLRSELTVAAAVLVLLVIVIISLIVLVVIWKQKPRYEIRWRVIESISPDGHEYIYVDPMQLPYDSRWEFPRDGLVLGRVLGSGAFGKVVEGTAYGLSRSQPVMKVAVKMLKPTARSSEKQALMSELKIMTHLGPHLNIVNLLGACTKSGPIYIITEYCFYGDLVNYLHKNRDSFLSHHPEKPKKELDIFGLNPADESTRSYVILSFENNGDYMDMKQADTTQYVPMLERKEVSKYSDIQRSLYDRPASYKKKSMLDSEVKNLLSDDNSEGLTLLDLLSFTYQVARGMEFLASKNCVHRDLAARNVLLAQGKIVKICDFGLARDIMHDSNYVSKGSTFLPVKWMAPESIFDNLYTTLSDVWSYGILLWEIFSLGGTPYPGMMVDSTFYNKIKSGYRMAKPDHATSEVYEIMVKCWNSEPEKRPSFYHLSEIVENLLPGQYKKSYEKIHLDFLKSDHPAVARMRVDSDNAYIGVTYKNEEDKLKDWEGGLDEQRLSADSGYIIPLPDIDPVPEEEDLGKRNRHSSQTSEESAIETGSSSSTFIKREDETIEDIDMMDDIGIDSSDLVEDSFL

Consider `[2H]c1c([2H])c(C(OC(=O)N2CCN(c3cnn4cc(-c5cnn(C)c5)ccc34)CC2)C([2H])([2H])[2H])c([2H])c([2H])c1Cl` (stereo not drawn) [Compound 291, 1-(4-chlorophenyl-2,3,5,6-d4) ethyl-2,2,2-d3 4-(6-(1-methyl-1H-pyrazol-4-yl)pyrazolo[1,5-a]pyridin-3-yl)piperazine-1-carboxylate], for which, on PDGFRα (setting [3]), the pIC50 was 10.80. The “GPR17 Fold Induction (Over Vehicle; 3 μM)” value in series [1] amounted to 6.24. Moreover, the fold induction at 3 mg/kg in series [2] (setting [4]) amounted to 6.93.
Regarding `C[C@@H](OC(=O)N1CCN(c2cnc3cc(-c4cnn(C)c4)cnn23)CC1)c1ccc(Cl)cc1` [Compound 282, (R)-1-(4-chlorophenyl)ethyl 4-(7-(1-methyl-1H-pyrazol-4-yl)imidazo[1,2-b]pyridazin-3-yl)piperazine-1-carboxylate], the “IC50 Values on PDGFRα Kinase Inhibition, IC50 (nM)” value on PDGFRα (11-point dose response, 10,000 nM to 0.169 nM, BLQ = below limit of quantitation) is “BLQ”. Besides, in series [1], the “GPR17 Fold Induction (Over Vehicle; 3 μM)” value is on record as 6.40. For the same compound, the fold induction at 3 mg/kg in series [2] (setting [4]) was found to be 4.02.
Consider `CNC(=O)c1cc(COc2nnc(Nc3ccc(Cl)cc3)c3ccoc23)ccn1` [Telatinib, telatinib, reference compound], for which the negative logarithm of the IC50 (pIC50) at PDGFRα (setting [5]) is 7.16. For the same compound, the “GPR17 Fold Induction (Over Vehicle; 5 μM)” value in series [1] is listed as 3.90. Besides, the “In vivo GPR17+ cells, GPR17 Fold Induction (Over Vehicle)” value in series [2] came to 10.68.
`Cn1cc(-c2ccc3c(N4CCC(c5ncc(Cc6ccccc6)cn5)CC4)cnn3c2)cn1` [Compound 148, 3-(4-(5-benzylpyrimidin-2-yl)piperidin-1-yl)-6-(1-methyl-1H-pyrazol-4-yl)pyrazolo[1,5-a]pyridine]: on PDGFRα (setting [3]), the negative-log IC50 (pIC50) was 5.09. Moreover, the “GPR17 Fold Induction (Over Vehicle; 3 μM)” value in series [1] was 7.82. Moreover, in series [2] (setting [4]), the fold induction at 3 mg/kg came to 1.22.
The like results for `Cn1cc(-c2ccc3c(N4CCN(c5ncc([S+]([O-])c6ccccc6)cn5)CC4)cnn3c2)cn1` (stereo not drawn) [Compound 187, 6-(1-methyl-1H-pyrazol-4-yl)-3-(4-(5-(phenylsulfinyl)pyrimidin-2-yl)piperazin-1-yl)pyrazolo[1,5-a]pyridine] were, in that order, 6.81, 4.97 and 1.32.
On to `Cc1ccc(Cc2cnc(N3CCN(c4cnn5cc(-c6cnn(C)c6)ccc45)CC3)nc2)cc1` [Compound 67, 3-{4-[5-(4-methylbenzyl)pyrimidin-2-yl]piperazin-1-yl}-6-(1-methyl-1H-pyrazol-4-yl)pyrazolo[1,5-a]pyridine], for which, at PDGFRα (setting [3]), the pIC50 is 6.11. Moreover, in series [1], the “GPR17 Fold Induction (Over Vehicle; 3 μM)” value is 3.41. In series [2] (setting [4]), the fold induction at 10 mg/kg was 9.4.
For the compound `Cn1cc(-c2ccc3c(N4CCN(C(=O)CC(C)(C)C)CC4)cnn3c2)cn1` [Compound 17, 3-[4-(3,3-dimethylbutanoyl)piperazin-1-yl]-6-(1-methyl-1H-pyrazol-4-yl)pyrazolo[1,5-a]pyridine], on PDGFRα (setting [3]), the negative-log IC50 (pIC50) is 5.79. In addition, in series [1], the “GPR17 Fold Induction (Over Vehicle; 3 μM)” value was determined as 1.14. In addition, in series [2] (setting [4]), the fold induction at 3.3 mg/kg worked out at 1.14.
As for `Cn1cc(-c2ccc3c(N4CCN(C(=O)NCc5ccccc5)CC4)cnn3c2)cn1` [Compound 161, N-benzyl-4-(6-(1-methyl-1H-pyrazol-4-yl)pyrazolo[1,5-a]pyridin-3-yl)piperazine-1-carboxamide], on PDGFRα (setting [3]), the pIC50 was 5.68. Besides, the “GPR17 Fold Induction (Over Vehicle; 3 μM)” value in series [1] came out at 3.97. For the same compound, the fold induction at 3 mg/kg in series [2] (setting [4]) stood at 1.81.
The like results for `Cc1ccc(C(C)OC(=O)N2CCN(c3cnn4cc(-c5cnn(C)c5)ccc34)CC2)cn1` (stereo not drawn) [Compound 317, 1-(6-methylpyridin-3-yl)ethyl 4-[6-(1-methyl-1H-pyrazol-4-yl)pyrazolo[1,5-a]pyridin-3-yl]piperazine-1-carboxylate] were, in that order, 7.76, 12.64 and 2.97.
For `C[C@@H](OC(=O)N1CCN(c2cnn3cc(-c4cnn(C)c4)ccc23)CC1)c1cccnc1` [Compound 315, (1R)-1-pyridin-3-ylethyl 4-[6-(1-methyl-1H-pyrazol-4-yl)pyrazolo[1,5-a]pyridin-3-yl]piperazine-1-carboxylate] the same measures were 6.26, 4.27 and 1.05.
As for `Cn1cc(-c2ccc3c(N4CCN(S(=O)(=O)N5CCCCC5)CC4)cnn3c2)cn1` [Compound 157, 6-(1-methyl-1H-pyrazol-4-yl)-3-(4-(piperidin-1-ylsulfonyl)piperazin-1-yl)pyrazolo[1,5-a]pyridine], the pIC50 on PDGFRα (setting [3]) was 5.68. Besides, the “GPR17 Fold Induction (Over Vehicle; 3 μM)” value in series [1] is given as 2.80. In series [2] (setting [4]), the fold induction at 30 mg/kg is 1.91.
With `CC(OC(=O)N1CCN(c2cnn3cc(-c4cnn(C)c4)ccc23)CC1)c1ccc(C(F)(F)F)c(F)c1` (stereo not drawn) [Compound 273, 1-(3-fluoro-4-(trifluoromethyl)phenyl)ethyl 4-(6-(1-methyl-1H-pyrazol-4-yl)pyrazolo[1,5-a]pyridin-3-yl)piperazine-1-carboxylate], the negative-log IC50 (pIC50) at PDGFRα (setting [3]) is 7.89. For the same compound, the “GPR17 Fold Induction (Over Vehicle; 3 μM)” value in series [1] is 9.05. Also, in series [2] (setting [4]), the fold induction at 3 mg/kg stood at 3.78.
For `Cn1cc(-c2ccc3c(N4CCN(c5ncc(CC6CCCCO6)cn5)CC4)cnn3c2)cn1` (stereo not drawn) [Compound 184, 6-(1-methyl-1H-pyrazol-4-yl)-3-(4-(5-((tetrahydro-2H-pyran-2-yl)methyl)pyrimidin-2-yl)piperazin-1-yl)pyrazolo[1,5-a]pyridine] the same measures were 6.90, 9.26 and 1.07.
Take `Nc1nc(Nc2ccc3c(c2)CC[C@@H](N2CCCC2)CC3)nn1-c1cc2c(nn1)-c1ccccc1CCC2` [Bemcentinib, bemcentinib, reference compound]: on PDGFRα (setting [5]), the negative logarithm of the IC50 (pIC50) was 6.37. Also, the “GPR17 Fold Induction (Over Vehicle; 5 μM)” value in series [1] is 2.99. Also, in series [2], the “In vivo GPR17+ cells, GPR17 Fold Induction (Over Vehicle)” value was determined as 1.09.
Regarding `Cn1cc(-c2ccc3c(N4CCN(c5ncn(Cc6ccccc6)n5)CC4)cnn3c2)cn1` [Compound 156, 3-(4-(1-benzyl-1H-1,2,4-triazol-3-yl)piperazin-1-yl)-6-(1-methyl-1H-pyrazol-4-yl)pyrazolo[1,5-a]pyridine], the negative-log IC50 (pIC50) at PDGFRα (setting [3]) is 6.61. Further, the “GPR17 Fold Induction (Over Vehicle; 3 μM)” value in series [1] is on record as 3.92. Further, the fold induction at 3 mg/kg in series [2] (setting [4]) came out at 11.5.
For `C[C@@H](OC(=O)N1CCN(c2cnn3cc(-c4cnn(C)c4)ccc23)CC1)c1ccc(OC(F)(F)F)cc1` [Compound 268, (1R)-1-[4-(trifluoromethoxy)phenyl]ethyl 4-[6-(1-methyl-1H-pyrazol-4-yl)pyrazolo[1,5-a]pyridin-3-yl]piperazine-1-carboxylate] the same measures were 7.93, 5.57 and 7.02.
For `Cn1cc(-c2ccc3c(N4CCN(c5ncc(C(CO)c6ccc(F)cc6)cn5)CC4)cnn3c2)cn1` (stereo not drawn) [Compound 257, 2-(4-fluorophenyl)-2-(2-(4-(6-(1-methyl-1H-pyrazol-4-yl)pyrazolo[1,5-a]pyridin-3-yl)piperazin-1-yl)pyrimidin-5-yl)ethan-1-ol] the same measures were 7.10, 10.85 and 2.32.
For `Cn1cc(-c2ccc3c(N4CCN(c5ccc(C(O)c6ccccc6)nc5)CC4)cnn3c2)cn1` (stereo not drawn) [Compound 241, (5-(4-(6-(1-methyl-1H-pyrazol-4-yl)pyrazolo[1,5-a]pyridin-3-yl)piperazin-1-yl)pyridin-2-yl)(phenyl)methanol] the same measures were 6.01, 16.27 and 6.43.
Consider `C[C@@H](OC(=O)N1CCN(c2cnn3cc(-c4cnn(C)c4)ccc23)CC1)c1ccc(Cl)cc1Cl` [Compound 270, (1R)-1-(2,4-dichlorophenyl)ethyl 4-[6-(1-methyl-1H-pyrazol-4-yl)pyrazolo[1,5-a]pyridin-3-yl]piperazine-1-carboxylate], for which the negative-log IC50 (pIC50) on PDGFRα (setting [3]) was 6.80. In addition, the “GPR17 Fold Induction (Over Vehicle; 3 μM)” value in series [1] is listed as 7.71. For the same compound, the fold induction at 3 mg/kg in series [2] (setting [4]) amounted to 1.92.
The like results for `Cn1cc(-c2ccc3c(C4CCN(c5ncc(Cc6ccccc6)cn5)CC4)cnn3c2)cn1` [Compound 63, 3-[1-(5-benzylpyrimidin-2-yl)piperidin-4-yl]-6-(1-methyl-1H-pyrazol-4-yl)pyrazolo[1,5-a]pyridine] were, in that order, 5.96, 8.97 and 1.83.
For `Cn1cc(-c2ccc3c(N4CCN(C(=O)NCc5ccc(C(F)(F)F)cc5)CC4)cnn3c2)cn1` [Compound 279, 4-[6-(1-methyl-1H-pyrazol-4-yl)pyrazolo[1,5-a]pyridin-3-yl]-N-[4-(trifluoromethyl)benzyl]piperazine-1-carboxamide] the same measures were 7.23, 3.62 and 6.33.
In the case of `COCCOc1ccc2c(c1)ncn2-c1ccc2cccc(N3CCC(N)CC3)c2n1` [CP-673451, reference compound], the negative logarithm of the IC50 (pIC50) on PDGFRα (setting [5]) was 6.94. In addition, the “GPR17 Fold Induction (Over Vehicle; 5 μM)” value in series [1] was found to be 2.94. Further, the “In vivo GPR17+ cells, GPR17 Fold Induction (Over Vehicle)” value in series [2] was 3.52.

What is called pIC50 is −log10 of the IC50, conventionally taken in molar units.
